The values that follow come from article PMC467105, “A comprehensive investigation of the anion inhibition profile of a β-carbonic anhydrase from Acinetobacter baumannii for crafting innovative antimicrobial treatments” (Journal of Enzyme Inhibition and Medicinal Chemistry, 2024).

Test [1] has as its target β-AbauCA (Acinetobacter baumannii β-CA, CanB) (Acinetobacter baumannii, UniProt A0A7U3Y636). Nature of the test: biochemical. It is filed as biochemical.
Test [2] concerns the target PgiCAβ (Porphyromonas gingivalis β-CA). Further details: method as in PMID 24146373. To be noted: cited from earlier work.
Setting [3] is: CO2 hydrase, stopped-flow assay.

Read-outs that look alike come from different tables or passages of the source. Some results are limits rather than exact numbers.

UniProt A0A7U3Y636, sequence (A0A7U3Y636 1-204): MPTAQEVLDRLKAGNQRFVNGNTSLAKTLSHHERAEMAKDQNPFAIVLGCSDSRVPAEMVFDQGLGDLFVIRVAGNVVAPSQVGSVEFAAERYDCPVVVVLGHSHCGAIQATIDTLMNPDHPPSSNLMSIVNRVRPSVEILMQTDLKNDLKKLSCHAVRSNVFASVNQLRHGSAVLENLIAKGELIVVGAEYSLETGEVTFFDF

One may read the Ki as the equilibrium dissociation constant of an inhibitor or competing ligand from its target. Take `NS(N)(=O)=O` [Anion H2NSO2NH2, sulfamide]: the “affinity / Ki for β-AbauCA (in words)” value in test [1] is “low millimolar affinity”. For the same molecule, the inhibition constant Ki in test [1] (read-out: Ki β-AbauCA) is 2.1 mM; in test [2] (setting [3]), 0.078 mM.
Regarding `NS(=O)(=O)O` [Anion H2NSO3H, sulphamic acid], the “affinity / Ki for β-AbauCA (in words)” value in test [1] was “submillimolar”. Moreover, the Ki in test [1] (read-out: Ki β-AbauCA) is 0.63 mM; in test [2] (setting [3]), 0.06 mM.
With `OB1OB2OB(O)OB(O1)O2` [B4O7^2-, tetraborate], the “affinity / Ki for β-AbauCA (in words)” value in test [1] is “low millimolar affinity”. The Ki in test [1] (read-out: Ki β-AbauCA) worked out at 6.9 mM.
As to `F[B-](F)(F)F` [BF4^-, tetrafluoroborate], the Ki in test [1] (read-out: Ki β-AbauCA) and in test [2] (setting [3]) was above 100 mM throughout.
Turning to `Br` [Br^-], the values for the Ki in test [1] (read-out: Ki β-AbauCA) and in test [2] (setting [3]) were above 100 mM and 15.9 mM, respectively.
With `O=S(=O)(O)C(F)(F)F` [CF3SO3^-, triflate], the Ki in test [1] (read-out: Ki β-AbauCA) is above 100 mM; in test [2] (setting [3]), 8.5 mM.
Turning to `N#CO` [CNO^-, cyanate], the “affinity / Ki for β-AbauCA (in words)” value in test [1] is “submillimolar”. For the same molecule, the inhibition constant Ki was 0.79 mM in test [1] (read-out: Ki β-AbauCA) and 0.76 mM in test [2].
On to `O=C(O)O` [CO3^2-, carbonate], for which the Ki was above 100 mM in test [1] (read-out: Ki β-AbauCA) and 3.7 mM in test [2].
Turning to `S=C(S)S` [CS3^2-, trithiocarbonate], the “affinity / Ki for β-AbauCA (in words)” value in test [1] is “low millimolar affinity”. Besides, the inhibition constant Ki in test [1] (read-out: Ki β-AbauCA) is 3.3 mM; in test [2] (setting [3]), 4.3 mM.
With `[O-][Cl+3]([O-])([O-])O` [ClO4^-, perchlorate], the Ki in test [1] (read-out: Ki β-AbauCA) and in test [2] was above 100 mM in each case.
`Cl` [Cl^-]: the Ki in test [1] (read-out: Ki β-AbauCA) was above 100 mM; in test [2] (setting [3]) it was 7.5 mM.
With `CCN(CC)C(=S)S` [Et2NCS2^-, diethyldithiocarbamate], the values for the Ki in test [1] and in test [2] (setting [3]) were 8.2 mM and 0.23 mM, respectively. For the same molecule, the “affinity / Ki for β-AbauCA (in words)” value in test [1] is on record as “low millimolar affinity”.
As for `F` [F^-], the results for the Ki in test [1] (read-out: Ki β-AbauCA) and in test [2] (setting [3]) were above 100 mM and 7.8 mM, respectively.
With `O=C(O)O` [HCO3^-, bicarbonate], the Ki in test [2] was 7.3 mM.
For `O=S(O)O` [HSO3^-, bisulphite], the figures for the Ki in test [1] (read-out: Ki β-AbauCA) and in test [2] (setting [3]) were 59.1 mM and above 100 mM, respectively.
As for `S` [HS^-, hydrogensulfide], the “affinity / Ki for β-AbauCA (in words)” value in test [1] is recorded as “submillimolar”. The values for the Ki in test [1] (read-out: Ki β-AbauCA) and in test [2] were 0.4 mM and 4.5 mM, respectively.
Take `I` [I^-]: the results for the inhibitory constant (Ki) in test [1] (read-out: Ki β-AbauCA) and in test [2] (setting [3]) were above 100 mM and 21.4 mM, respectively.
As for `[N-]=[N+]=[N-]` [N3^-, azide], the Ki in test [1] (read-out: Ki β-AbauCA) and in test [2] was above 100 mM in each case.
Consider `O=S(=O)(O)NS(=O)(=O)O` [NH(SO3)2^2-, iminodisulfonate], for which, in test [1], the “affinity / Ki for β-AbauCA (in words)” value is recorded as “submillimolar”. For the same molecule, the values for the inhibitory constant (Ki) in test [1] (read-out: Ki β-AbauCA) and in test [2] (setting [3]) were 0.93 mM and 2.1 mM, respectively.
For the molecule `O=NO` [NO2^-, nitrite], the values for the Ki in test [1] (read-out: Ki β-AbauCA) and in test [2] were 31.1 mM and 7.8 mM, respectively.
With `O=[N+]([O-])O` [NO3^-, nitrate], the Ki in test [1] (read-out: Ki β-AbauCA) is 47.9 mM; in test [2] (setting [3]), above 100 mM.
As to `O=P(O)(O)OP(=O)(O)O` [P2O7^4-, pyrophosphate], the Ki in test [1] (read-out: Ki β-AbauCA) is 33.6 mM; in test [2] (setting [3]), 8.2 mM.
In the case of `F[P-](F)(F)(F)(F)F` [PF6^-, hexafluorophosphate], the Ki in test [2] (setting [3]) was 8.2 mM.
For the molecule `O=[As](O)(O)c1ccccc1` [Ph-AsO3H2, phenylarsonic acid], the Ki in test [2] was 0.076 mM.
On to `OB(O)c1ccccc1` [Ph-B(OH)2, phenylboronic acid], for which, in test [1], the affinity, expressed as Ki, was 0.29 mM and the “affinity / Ki for β-AbauCA (in words)” value is “submillimolar”. Moreover, the Ki in test [2] was 0.077 mM.
Consider `[O]=[Re](=[O])(=[O])[O-]` [ReO4^-, perrhenate], for which the “affinity / Ki for β-AbauCA (in words)” value in test [1] is recorded as “low millimolar affinity”. Further, the Ki in test [1] (read-out: Ki β-AbauCA) turned out to be 8.1 mM.
For `[O]=[Ru](=[O])(=[O])=[O]` [RuO4^-, perrhuthenate], in test [1], the “affinity / Ki for β-AbauCA (in words)” value is recorded as “submillimolar”. The inhibition constant Ki in test [1] (read-out: Ki β-AbauCA) is 0.96 mM.
In the case of `O=S(=O)(O)OOS(=O)(=O)O` [S2O8^2-, peroxydisulfate], in test [1], the “affinity / Ki for β-AbauCA (in words)” value was “low millimolar affinity”. Besides, the Ki in test [1] (read-out: Ki β-AbauCA) was 3.8 mM; in test [2] (setting [3]), 9.2 mM.
Regarding `N#CS` [SCN^-, thiocyanate], in test [1], the “affinity / Ki for β-AbauCA (in words)” value is “low millimolar affinity”. Moreover, the Ki in test [2] (setting [3]) is 1.9 mM.
On to `O=S(=O)(O)O` [SO4^2-, sulphate], for which the inhibitory constant (Ki) in test [1] (read-out: Ki β-AbauCA) was 79.3 mM; in test [2], above 100 mM.
As to `N#C[SeH]` [SeCN^-, selenocyanide], the “affinity / Ki for β-AbauCA (in words)” value in test [1] is recorded as “submillimolar”. For the same molecule, the Ki in test [1] (read-out: Ki β-AbauCA) was 0.71 mM; in test [2], 2.4 mM.
As for `O=[Se](=O)(O)O` [SeO4^2-, selenate], the inhibition constant (Ki) in test [1] (read-out: Ki β-AbauCA) is 18.4 mM; in test [2], 9.2 mM.
Regarding `[O]=[Sn]([OH])[OH]` [SnO3^2-, stannate], in test [1], the “affinity / Ki for β-AbauCA (in words)” value is recorded as “low millimolar affinity”. Also, the inhibition constant Ki in test [1] (read-out: Ki β-AbauCA) amounted to 2.4 mM.
With `O=[Te](=O)(O)O` [TeO4^2-, tellurate], in test [1] (read-out: Ki β-AbauCA), the inhibition constant (Ki) stood at 6 mM.
Turning to `[O]=[V]([OH])([OH])[O][V](=[O])([OH])[OH]` [V2O7^4-, divanadate], the “affinity / Ki for β-AbauCA (in words)” value in test [1] was “low millimolar affinity”. Also, the Ki in test [1] (read-out: Ki β-AbauCA) was found to be 5.8 mM.
